The values that follow come from ChEMBL document CHEMBL1148996, “6-Methoxylated and C-glycosyl flavonoids from Centaurea species” (1984).

Holding throughout (format): functional
The subject of one assay is Escherichia coli. The assay is described as follows: Antimicrobial activity against Escherichia coli ATCC 8739 by paper disk method.
In another assay the test system is Pseudomonas aeruginosa. The assay is described as follows: Antimicrobial activity against Pseudomonas aeruginosa ATCC 1539 by paper disk method.
The next assay has as its system Bacillus subtilis. The assay is described as follows: Antimicrobial activity against Bacillus subtilis ATCC 6633 by paper disk method.
The subject of another assay is Klebsiella pneumoniae. The assay is described as follows: Antimicrobial activity against Klebsiella pneumoniae UJ57 by paper disk method.
A further assay has as its system Proteus vulgaris. The assay is described as follows: Antimicrobial activity against Proteus vulgaris ATCC 8427 by paper disk method.

Converted amounts (≈) assume the structure as drawn.

By MBC is commonly meant the smallest concentration meeting the test's criterion for killing. The low end stands for greater bactericidal potency, the high end for weaker bactericidal potency. The MIC is the smallest concentration in the dilution series that meets the test's criterion for growth inhibition. A high value points to a need for much substance. For the molecule `COc1ccc(-c2cc(=O)c3c(O)c(OC)c(OC)cc3o2)cc1OC`, in the assay on Escherichia coli, the MBC was 500 µg/mL (≈ 1400 µM) and the lowest concentration to inhibit growth (MIC) was 250 µg/mL (≈ 698 µM). In the assay with Pseudomonas aeruginosa, this molecule registered a minimal bactericidal concentration (MBC) of 250 µg/mL (≈ 698 µM) and an MIC of 125 µg/mL (≈ 349 µM).

Regarding `O=c1cc(-c2ccc(O)cc2)oc2cc(O)cc(O)c12` [APIGENIN], the MBC against Bacillus subtilis is 219 µg/mL (≈ 810 µM); against Klebsiella pneumoniae, 438 µg/mL (≈ 1620 µM); against Escherichia coli, 438 µg/mL (≈ 1620 µM); in the assay with Proteus vulgaris, 438 µg/mL (≈ 1620 µM); in the assay with Pseudomonas aeruginosa, 438 µg/mL (≈ 1620 µM). In addition, the MIC with Bacillus subtilis was 110 µg/mL (≈ 405 µM); in the assay on Klebsiella pneumoniae, 219 µg/mL (≈ 810 µM); in the assay with Escherichia coli it was 110 µg/mL (≈ 405 µM); with Proteus vulgaris, 54.8 µg/mL (≈ 203 µM); in the assay on Pseudomonas aeruginosa it was 110 µg/mL (≈ 405 µM).

`COc1ccc(-c2cc(=O)c3c(O)c(OC)c(OC)cc3o2)cc1O` [EUPATORIN]: the MBC is 188 µg/mL (≈ 545 µM) against Bacillus subtilis and greater than 375 µg/mL with Escherichia coli. For the same molecule, the minimum inhibitory concentration (MIC) against Bacillus subtilis came to 93.8 µg/mL (≈ 272 µM); in the assay on Escherichia coli, 188 µg/mL (≈ 545 µM).

For the molecule `COc1c(O)cc2oc(-c3ccc(O)cc3)cc(=O)c2c1O` [HISPIDULIN], the MBC with Bacillus subtilis and in the assay with Proteus vulgaris was greater than 250 µg/mL in each case. The MIC against Bacillus subtilis and against Proteus vulgaris was 125 µg/mL (≈ 416 µM) each time.

In the assay on Escherichia coli, `COc1cc(-c2cc(=O)c3c(O)c(OC)c(O)cc3o2)ccc1O` [JACEOSIDINE] displayed a minimal bactericidal concentration (MBC) of 250 µg/mL (≈ 757 µM) and a minimum inhibitory concentration (MIC) of 125 µg/mL (≈ 378 µM).
